According to the NIST ThermoML archive (doi:10.1021/acs.jced.6b00718):

Tests used:
[1] = for viscosity / mass density: 101 kPa; for viscosity / mass density / electrical conductivity: Liquid; for viscosity: Falling or rolling sphere viscometry; for mass density: Vibrating tube method; for Normal melting temperature: DTA; for electrical conductivity: 101.33 kPa, Alternating current cell with electrodes
[2] = xn = mol fraction of the nth substance listed; details: 101 kPa, Liquid, x1 = 1; for viscosity: Falling or rolling sphere viscometry; for mass density: Vibrating tube method

CCCC#N [butanenitrile]
[1]
Details	mass density [kg/m3]	viscosity [mPa·s]
293.15 K	791.1	0.88
298.15 K	786.4	0.86
303.15 K	781.8	0.84
313.15 K	772.4	0.81
323.15 K	763	0.78
333.15 K	753.5	0.75

CCCC[N+]1(C)CCCC1.O=S(=O)([N-]S(=O)(=O)C(F)(F)F)C(F)(F)F + N#CCCCCC#N
[2]
Details	mass density [kg/m3]	viscosity [mPa·s]
293.15 K	1399.8	98.72
298.15 K	1395.2	77.66
303.15 K	1390.7	62.29
313.15 K	1381.7	41.87
323.15 K	1372.8	29.61
333.15 K	1363.8	21.82

N#CCCCCC#N [hexanedinitrile]
[1]
Details	Normal melting temperature [°C]	mass density [kg/m3]	viscosity [mPa·s]
293.15 K	–	962.3	7.17
298.15 K	–	958.6	6.31
303.15 K	–	954.8	5.53
313.15 K	–	947.2	4.54
323.15 K	–	939.8	3.73
333.15 K	–	932.3	3.02
Crystal	6.2	–	–

N#CCCCC#N [pentanedinitrile]
[1]
Details	mass density [kg/m3]	viscosity [mPa·s]
293.15 K	987	6.97
298.15 K	983.1	6.12
303.15 K	979.1	5.39
313.15 K	971.2	4.25
323.15 K	963.4	3.47
333.15 K	955.6	2.88

CCCC[N+]1(C)CCCC1.O=S(=O)([N-]S(=O)(=O)C(F)(F)F)C(F)(F)F
[1]
Details	Normal melting temperature [°C]	electrical conductivity [S/m]	mass density [kg/m3]	viscosity [mPa·s]
293.15 K	–	–	1399.8	98.72
293.4 K	–	0.22	–	–
296.1 K	–	0.249	–	–
298.15 K	–	–	1395.2	77.66
299.3 K	–	0.285	–	–
303.15 K	–	–	1390.7	62.29
303.3 K	–	0.334	–	–
309.3 K	–	0.419	–	–
313.15 K	–	–	1381.7	41.87
313.2 K	–	0.481	–	–
320 K	–	0.6	–	–
323.15 K	–	–	1372.8	29.61
323.2 K	–	0.66	–	–
333.15 K	–	–	1363.8	21.82
333.5 K	–	0.88	–	–
Metastable crystal	-20	–	–	–

CCCC[N+]1(C)CCCC1.O=S(=O)([N-]S(=O)(=O)C(F)(F)F)C(F)(F)F + N#CCCCC#N
[2]
Details	mass density [kg/m3]	viscosity [mPa·s]
293.15 K	1399.8	98.72
298.15 K	1395.2	77.66
303.15 K	1390.7	62.29
313.15 K	1381.7	41.87
323.15 K	1372.8	29.61
333.15 K	1363.8	21.82

CCCC[N+]1(C)CCCC1.O=S(=O)([N-]S(=O)(=O)C(F)(F)F)C(F)(F)F + CCCC#N
[2]
Details	mass density [kg/m3]	viscosity [mPa·s]
293.15 K	1399.8	98.72
298.15 K	1395.2	77.66
303.15 K	1390.7	62.29
313.15 K	1381.7	41.87
323.15 K	1372.8	29.61
333.15 K	1363.8	21.82
